According to patent US20100041597A1, “PEPTIDES TARGETED TO PROTEIN KINASE C ISOFORMS AND USES THEREOF” (priority 2005, published 2010):
Each block holds one substance with its values, some of them ahead of it.

Experiments:
PKC-α [1] = biological target: T1, PKC-α (Homo sapiens, UniProt P17252); test: In vitro competition with anti-PKC-α antibody, Protocol B (peptide added to cell extract before electrophoresis), IMR-32 cells; type: binding; design: subcellular localisation of endogenous PKC-α in IMR-32 cells; endogenous in cells; host or cells: IMR-32; details: PKC-α; for Band Intensity: control band intensity 302.5, Table 9
Procedure: (§1) Peptides PRE 3 and PRE 4 (see Table 3) were tested for their ability to interfere with the binding of isoform-specific polyclonal antibodies (Santa Cruz Biotechnology, Inc.) to PKC-α, PKC-βI or PKC-βII using the general protocol described in Example 3.

PKC-α [2] = biological target: T1, PKC-α; test: Subcellular localisation of PKC-α in IMR-32 cells; type: cell-based; design: subcellular localisation of endogenous PKC-α in IMR-32 cells; endogenous in cells; host or cells: IMR-32; details: 10 mg/ml, pinocytic endocytosis
Procedure: Peptides PRE 3 or PRE 4 (10 mg/ml) were introduced into human neuroblastoma cells (IMR-32) by pinocytic endocytosis. The cells were fixed and stained with rabbit PKC-A primary antibody and anti-rabbit Alexa-488 or Alexa-800 secondary antibody.
In most of the cells PKC-α can be seen to be located in the cytoplasm, around the nucleus and at the plasma membrane (where it becomes activated).

PKC-βII = PKC-βII (Homo sapiens, UniProt P05771); test: In vitro competition with anti-PKC-βII antibody, Protocol B, IMR-32 cells; type: binding; design: PRE 3 and PRE 4 in IMR-32 Neuroblastoma Cells: Protocol B; endogenous in cells; host or cells: IMR-32; details: for Band Intensity: control band intensity 98.6, Table 9
Procedure: as §1

PKC-βI = PKC-βI (Homo sapiens, UniProt P05771); test: In vitro competition with anti-PKC-βI antibody, Protocol B, IMR-32 cells; type: binding; design: PRE 3 and PRE 4 in IMR-32 Neuroblastoma Cells: Protocol B; endogenous in cells; host or cells: IMR-32; details: for Band Intensity: control band intensity 170.5, Table 9
Procedure: (§2) The ability of the peptides PRE 2 and PRE 3 (see Table 3) to interfere with the binding of a PKC-α-specific polyclonal antibody (Santa Cruz Biotechnology, Inc.) to PKC-α was determined using a modified version of the protocol outlined above in which the test peptide was added directly to the cell extract prior to electrophoresis at a concentration of either 5× or 15× the concentration of the protein applied to each well of the gel for the Western blots (20 μg).
as §1

PKC-ε = test: In vitro competition with anti-PKC-ε antibody, Protocol B, IMR-32 cells; type: binding, human
Procedure: as §2
Peptides PRE 2, PRE 3 and PRE 4 (see Table 3) were tested for their ability to interfere with the binding of isoform-specific polyclonal antibodies (Santa Cruz Biotechnology, Inc.) to PKC-ε using the general protocol described in Example 3. Two bands, representing alternate splicing variants of PKC-ε, were identified on the Western blot using this anti-PKC-ε antibody.

PKC-α [3] = biological target: T1, PKC-α; test: In vitro competition with anti-PKC-α antibody on blotted cell lysate, Protocol A, IMR-32 cells; type: binding; design: subcellular localisation of endogenous PKC-α in IMR-32 cells; endogenous in cells; host or cells: IMR-32; details: Protocol A; for Band Intensity / Inhibition (%) / Relative Intensity (%): IMR-32, Table 4
Procedure: The ability of the peptides to interfere with the binding of a PKC-α-specific monoclonal antibody to PKC-α was determined using the following protocol.
Cell lysates from either IMR-32 (human neuroblastoma) cells or C6Cx43 cells (rat glioma transfected cells overexpressing connexin 43) were obtained using standard protocols and the proteins of the lysate were separated by SDS PAGE electrophoresis and electrotransferred onto a nitrocellulose membrane. […] A primary polyclonal antibody specific for PKC-α (Santa Cruz Biotechnology, Inc., CA) was then added (15 μg/ml) and the membrane incubated for a further 45 minutes. Finally, the primary antibody was detected with a secondary antibody conjugated to alkaline phosphatase using standard procedures. The intensity of the band corresponding to PKC-α was assessed by scanning and densitometry using the Gel-Pro software (Media Cybernetics) to obtain relative band intensities (average of 3 replicas). Control assays were conducted as described above except that blocking buffer without peptide was used.
The results are expressed as relative band intensity and as a percentage of the intensity of the corresponding band in the control assay (“Relative intensity (%)”). “% inhibition” relates to the percentage of the PKC-α band that is inaccessible to the antibody.

PKC-βII, sequence (P05771 1-673 isoform P05771-2): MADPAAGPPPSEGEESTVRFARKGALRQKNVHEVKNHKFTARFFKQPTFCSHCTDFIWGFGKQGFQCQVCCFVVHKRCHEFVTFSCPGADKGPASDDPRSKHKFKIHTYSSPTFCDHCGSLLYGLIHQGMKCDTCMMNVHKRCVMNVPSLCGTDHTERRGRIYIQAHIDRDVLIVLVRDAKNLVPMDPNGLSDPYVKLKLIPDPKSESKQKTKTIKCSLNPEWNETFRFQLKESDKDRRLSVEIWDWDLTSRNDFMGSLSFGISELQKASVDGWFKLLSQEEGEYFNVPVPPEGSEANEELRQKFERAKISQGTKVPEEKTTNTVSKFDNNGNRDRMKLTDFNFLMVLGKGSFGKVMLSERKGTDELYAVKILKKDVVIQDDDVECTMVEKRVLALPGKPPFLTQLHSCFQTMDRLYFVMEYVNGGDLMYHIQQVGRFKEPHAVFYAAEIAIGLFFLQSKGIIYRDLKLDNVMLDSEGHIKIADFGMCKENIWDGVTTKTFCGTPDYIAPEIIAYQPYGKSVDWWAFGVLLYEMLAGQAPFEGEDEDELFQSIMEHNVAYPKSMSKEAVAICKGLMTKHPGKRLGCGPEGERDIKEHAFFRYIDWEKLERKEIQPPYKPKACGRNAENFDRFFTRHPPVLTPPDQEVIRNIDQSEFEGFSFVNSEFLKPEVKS
PKC-βI, sequence (P05771 whole entry): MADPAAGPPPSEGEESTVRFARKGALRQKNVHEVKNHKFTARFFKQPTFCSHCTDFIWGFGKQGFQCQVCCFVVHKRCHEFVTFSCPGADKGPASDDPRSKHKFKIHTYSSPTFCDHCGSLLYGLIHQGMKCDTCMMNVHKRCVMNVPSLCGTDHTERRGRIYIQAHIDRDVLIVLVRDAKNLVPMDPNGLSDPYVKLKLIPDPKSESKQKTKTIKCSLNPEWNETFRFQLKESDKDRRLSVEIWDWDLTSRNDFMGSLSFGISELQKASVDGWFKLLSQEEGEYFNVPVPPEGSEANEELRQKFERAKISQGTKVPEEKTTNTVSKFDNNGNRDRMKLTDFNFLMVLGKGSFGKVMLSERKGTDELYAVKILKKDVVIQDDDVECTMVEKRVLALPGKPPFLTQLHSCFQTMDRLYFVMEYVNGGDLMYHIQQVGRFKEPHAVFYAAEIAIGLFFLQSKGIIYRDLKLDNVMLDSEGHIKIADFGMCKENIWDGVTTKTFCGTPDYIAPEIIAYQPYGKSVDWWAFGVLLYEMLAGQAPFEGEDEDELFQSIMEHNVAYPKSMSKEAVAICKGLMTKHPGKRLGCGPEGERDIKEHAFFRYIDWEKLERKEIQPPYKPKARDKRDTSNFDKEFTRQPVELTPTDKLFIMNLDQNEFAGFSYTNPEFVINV

inhibition at 0.1 mg (PKC-α [1]; 100 μg, Table 9): 89.4%
remaining activity at 0.1 mg (PKC-α [1]; 100 μg, Table 9, read-out: Relative Intensity (%)): 10.6%
Band Intensity (PKC-α [1]; 100 μg): 32.2
inhibition at 0.2 mg (PKC-α [1]; 200 μg, Table 9): 99.5%
remaining activity at 0.2 mg (PKC-α [1]; 200 μg, Table 9, read-out: Relative Intensity (%)): 0.5%
Band Intensity (PKC-α [1]; 200 μg): 1.5
inhibition at 0.3 mg (PKC-α [1]; 300 μg, Table 9): 100%
remaining activity at 0.3 mg (PKC-α [1]; 300 μg, Table 9, read-out: Relative Intensity (%)): 0%
Band Intensity (PKC-α [1]; 300 μg): 0.0
effect on antibody binding to PKC-βII (PKC-βII): some cross-reactivity
inhibition at 0.1 mg (PKC-βII; 100 μg, PKC-βII, Table 9): 29%
remaining activity at 0.1 mg (PKC-βII; 100 μg, PKC-βII, Table 9, read-out: Relative Intensity (%)): 69.5%
Band Intensity (PKC-βII; 100 μg, PKC-βII): 69.58
inhibition at 0.2 mg (PKC-βII; 200 μg, PKC-βII, Table 9): 100%
remaining activity at 0.2 mg (PKC-βII; 200 μg, PKC-βII, Table 9, read-out: Relative Intensity (%)): 0%
Band Intensity (PKC-βII; 200 μg, PKC-βII): 0.0
inhibition at 0.3 mg (PKC-βII; 300 μg, PKC-βII, Table 9): 100%
remaining activity at 0.3 mg (PKC-βII; 300 μg, PKC-βII, Table 9, read-out: Relative Intensity (%)): 0%
Band Intensity (PKC-βII; 300 μg, PKC-βII): 0.0
effect on antibody binding to PKC-βI (PKC-βI): some cross-reactivity
inhibition at 0.1 mg (PKC-βI; 100 μg, PKC-βI, Table 9): 34%
remaining activity at 0.1 mg (PKC-βI; 100 μg, PKC-βI, Table 9, read-out: Relative Intensity (%)): 66%
Band Intensity (PKC-βI; 100 μg, PKC-βI): 112.5
inhibition at 0.2 mg (PKC-βI; 200 μg, PKC-βI, Table 9): 100%
remaining activity at 0.2 mg (PKC-βI; 200 μg, PKC-βI, Table 9, read-out: Relative Intensity (%)): 0%
Band Intensity (PKC-βI; 200 μg, PKC-βI): 0.0
inhibition at 0.3 mg (PKC-βI; 300 μg, PKC-βI, Table 9): 100%
remaining activity at 0.3 mg (PKC-βI; 300 μg, PKC-βI, Table 9, read-out: Relative Intensity (%)): 0%
Band Intensity (PKC-βI; 300 μg, PKC-βI): 0.0
Substance: Ac-KDAQNLIGISI-NH2 [PRE 4, Ac-KDAQNLIGISI-NH2]
effect on subcellular localisation of PKC-α (PKC-α [2]): prevented translocation of PKC-α to the membrane
effect on antibody binding to PKC-ε (PKC-ε): some cross-reactivity with PKC-ε
Band Intensity (PKC-ε; 20 μg, PKC-ε Band 1, Table 10): 184.38
Inhibition (%) (PKC-ε; 20 μg, PKC-ε Band 1, Table 10): 42.9%
Relative Intensity (%) (PKC-ε; 20 μg, PKC-ε Band 1, Table 10): 57.1%
Band Intensity (PKC-ε; 20 μg, PKC-ε Band 2, Table 10): 152.66
Inhibition (%) (PKC-ε; 20 μg, PKC-ε Band 2, Table 10): 46.6%
Relative Intensity (%) (PKC-ε; 20 μg, PKC-ε Band 2, Table 10): 53.33%
Band Intensity (PKC-ε; 50 μg, PKC-ε Band 1, Table 10): 0.0
Inhibition (%) (PKC-ε; 50 μg, PKC-ε Band 1, Table 10): 100.0%
Relative Intensity (%) (PKC-ε; 50 μg, PKC-ε Band 1, Table 10): 0.0%
Band Intensity (PKC-ε; 50 μg, PKC-ε Band 2, Table 10): 0.0
Inhibition (%) (PKC-ε; 50 μg, PKC-ε Band 2, Table 10): 100.0%
Relative Intensity (%) (PKC-ε; 50 μg, PKC-ε Band 2, Table 10): 0.0%
Band Intensity (PKC-ε; 100 μg, PKC-ε Band 1, Table 10): 0.0
Inhibition (%) (PKC-ε; 100 μg, PKC-ε Band 1, Table 10): 100.0%
Relative Intensity (%) (PKC-ε; 100 μg, PKC-ε Band 1, Table 10): 0.0%
Band Intensity (PKC-ε; 100 μg, PKC-ε Band 2, Table 10): 0.0
Inhibition (%) (PKC-ε; 100 μg, PKC-ε Band 2, Table 10): 100.0%
Relative Intensity (%) (PKC-ε; 100 μg, PKC-ε Band 2, Table 10): 0.0%

Band Intensity (PKC-α [3]; 75 μg peptide): 1.040
Inhibition (%) (PKC-α [3]; 75 μg peptide): 50.2%
Relative Intensity (%) (PKC-α [3]; 75 μg peptide): 49.8%
Band Intensity (PKC-α [3]; 300 μg peptide): 0.771
Inhibition (%) (PKC-α [3]; 300 μg peptide): 63.1%
Relative Intensity (%) (PKC-α [3]; 300 μg peptide): 36.9%
effect on antibody binding to PKC-α (PKC-α [3]): mask the antigenic site of PKC-α
Substance: RRKKGGKDFVVKR [PRE 1]
